In patent US20060269529A1, “Modified t lymphocytes and uses therefor” (priority 2002, published 2006):

Experiments:
Flk-1 = Flk-1 (Mus musculus, UniProt P35918); settings: Millauer 1993; Quinn 1993; cited from earlier work
human KDR-Fc (VEGFR2) = target: T1, human KDR-Fc (VEGFR2) (Homo sapiens, UniProt P35968); type: binding
T1 construct: purchased R & D Systems
Description: High-titer retrovirus encoding the gene for a soluble form of Flk-1, Flk-Fc, were used to infect 293T cells. Conditioned medium from these transduced cells was collected and subjected to Western blot analysis by using either antibody directed against Flk-1 or ^125I-labeled protein A to confirm the presence of both the Flk-1 and Fc portions of the fusion protein. For FACS analysis of HeLa-VEGF-cTcR cells, 2 ml of conditioned medium from these transduced cells or control media from untransduced 293T cells was used as the primary reagent. The cells were then washed and incubated with anti-mouse IgG2a-PE (Chemicon) and analyzed. For the VEGF-cTcR/KDR-Fc binding study, VEGF-cTcR clone 2 cells were incubated with increasing amounts of human KDR-Fc (R & D Systems), washed twice with PBS, and stained with anti-human IgG1-FITC antibody. For analysis of transduced CTLs, cells were incubated successively with anti-human c-Myc antibody, biotinylated anti-mouse IgG, and streptavidin-PE or only with anti-mouse CD8 antibody conjugated to FITC (Pharmingen).

T241 fibrosarcomas = assay: Adoptive transfer, T241 tumors in C57BL/6 mice; type: in vivo; settings: combination study, TNP-470 30 mg/kg s.c. every other day, daily IL-2, FIG. 5C
Description: (§1) On day 0, tumor cells were implanted into the subcutaneous space on the right flank of recipient mice. On the days of treatment, CTLs (4 to 7 post-transduction) were harvested, washed, resuspended in cold PBS, and injected in a volume of 300 μl into the retro-orbital venous plexus. […] TNP-470 (TAP Holdings Inc., Deerfield, Ill.) (30 mg/kg) was injected subcutaneously (into a site remote from the tumor) every other day in 0.3 ml PBS starting with the first day of CTL therapy. Starting volumes of tumors ranged from 40 to 80 mm^3. All mice were sacrificed when control mice reached a mean tumor volume of 2,000 mm^3 or had extensive tumor ulceration.

B16.F10 murine melanomas = assay: Adoptive transfer, subcutaneous B16.F10 tumors in C57BL/6 mice; type: in vivo; settings: combination study, TNP-470 30 mg/kg s.c. every other day, daily IL-2, FIG. 5B
Description: (§2) On day 0, tumor cells were implanted into the subcutaneous space on the right flank of recipient mice. On the days of treatment, CTLs (4 to 7 post-transduction) were harvested, washed, resuspended in cold PBS, and injected in a volume of 300 μl into the retro-orbital venous plexus. […] TNP-470 (TAP Holdings Inc., Deerfield, Ill.) (30 mg/kg) was injected subcutaneously (into a site remote from the tumor) every other day in 0.3 ml PBS starting with the first day of CTL therapy. Starting volumes of tumors ranged from 40 to 80 mm^3.

[1] = Toxicity observations in treated tumor-bearing mice; type: in vivo; settings: TNP-470 alone
Description: as §1

[2] = system: CT26 murine colon adenocarcinomas; assay: Adoptive transfer, subcutaneous CT26 tumors in BALB/c mice; type: in vivo; settings: combination study, TNP-470 30 mg/kg s.c. every other day, daily IL-2, FIG. 5A
Description: as §2

Sequence of Flk-1 (P35918 20-1345): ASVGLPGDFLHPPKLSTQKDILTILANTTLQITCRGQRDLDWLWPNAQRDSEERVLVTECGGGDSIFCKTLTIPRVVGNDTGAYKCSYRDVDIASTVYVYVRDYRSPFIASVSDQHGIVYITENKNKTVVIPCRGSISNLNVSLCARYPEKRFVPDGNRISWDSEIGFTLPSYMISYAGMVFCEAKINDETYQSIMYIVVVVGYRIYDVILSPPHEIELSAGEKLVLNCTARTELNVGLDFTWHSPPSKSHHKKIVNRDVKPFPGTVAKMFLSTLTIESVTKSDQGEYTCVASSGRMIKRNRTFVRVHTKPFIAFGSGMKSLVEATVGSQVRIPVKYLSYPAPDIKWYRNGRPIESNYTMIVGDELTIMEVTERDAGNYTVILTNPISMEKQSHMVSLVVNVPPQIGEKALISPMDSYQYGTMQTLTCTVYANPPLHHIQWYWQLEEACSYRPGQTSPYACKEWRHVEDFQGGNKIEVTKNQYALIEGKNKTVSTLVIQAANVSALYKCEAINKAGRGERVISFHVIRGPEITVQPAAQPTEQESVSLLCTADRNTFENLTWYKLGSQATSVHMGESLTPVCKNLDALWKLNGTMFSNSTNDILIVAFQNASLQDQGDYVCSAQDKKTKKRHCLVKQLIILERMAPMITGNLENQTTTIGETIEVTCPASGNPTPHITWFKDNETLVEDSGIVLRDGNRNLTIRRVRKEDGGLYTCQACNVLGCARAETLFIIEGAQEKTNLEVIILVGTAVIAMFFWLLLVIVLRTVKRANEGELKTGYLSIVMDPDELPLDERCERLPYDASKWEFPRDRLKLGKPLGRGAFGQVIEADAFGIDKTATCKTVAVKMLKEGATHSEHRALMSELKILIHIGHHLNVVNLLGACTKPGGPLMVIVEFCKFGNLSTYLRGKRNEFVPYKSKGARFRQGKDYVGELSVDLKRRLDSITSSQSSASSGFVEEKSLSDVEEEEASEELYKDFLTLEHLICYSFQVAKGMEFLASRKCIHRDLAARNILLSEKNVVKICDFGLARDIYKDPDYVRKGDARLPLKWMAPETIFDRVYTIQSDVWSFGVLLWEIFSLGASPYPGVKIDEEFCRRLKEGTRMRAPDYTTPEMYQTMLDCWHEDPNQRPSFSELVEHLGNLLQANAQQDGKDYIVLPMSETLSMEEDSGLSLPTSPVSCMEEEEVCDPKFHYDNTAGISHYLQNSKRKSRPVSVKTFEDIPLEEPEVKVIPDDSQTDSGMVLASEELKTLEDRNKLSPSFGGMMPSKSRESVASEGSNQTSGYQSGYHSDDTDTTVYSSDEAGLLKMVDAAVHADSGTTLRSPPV
T1 sequence (P35968 20-764 limits assumed): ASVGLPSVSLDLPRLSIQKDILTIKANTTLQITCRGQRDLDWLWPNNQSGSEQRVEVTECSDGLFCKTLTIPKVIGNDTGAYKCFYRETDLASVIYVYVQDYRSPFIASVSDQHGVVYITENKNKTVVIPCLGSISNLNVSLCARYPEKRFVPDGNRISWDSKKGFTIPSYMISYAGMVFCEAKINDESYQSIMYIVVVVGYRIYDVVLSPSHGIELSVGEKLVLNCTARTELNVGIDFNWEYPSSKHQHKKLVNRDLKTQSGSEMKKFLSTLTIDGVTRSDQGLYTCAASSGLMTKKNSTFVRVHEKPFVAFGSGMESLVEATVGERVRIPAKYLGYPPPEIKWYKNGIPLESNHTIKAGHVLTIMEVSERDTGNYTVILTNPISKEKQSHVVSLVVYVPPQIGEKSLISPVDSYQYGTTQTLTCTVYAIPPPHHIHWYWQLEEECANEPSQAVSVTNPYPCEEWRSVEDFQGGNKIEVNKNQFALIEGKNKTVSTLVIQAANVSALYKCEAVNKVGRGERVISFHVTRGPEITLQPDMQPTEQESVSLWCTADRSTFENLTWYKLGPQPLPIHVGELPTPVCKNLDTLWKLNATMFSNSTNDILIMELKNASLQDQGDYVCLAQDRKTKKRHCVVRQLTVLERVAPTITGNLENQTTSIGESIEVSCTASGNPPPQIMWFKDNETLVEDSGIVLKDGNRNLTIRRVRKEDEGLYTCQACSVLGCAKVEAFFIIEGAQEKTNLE

Compound | binding affinity reported for association of native VEGF and Flk-1 (Flk-1) | inhibition of KDR-Fc binding to VEGF-cTcR clone 2 cells (human KDR-Fc (VEGFR2)) | inhibition of T241 fibrosarcoma growth (T241 fibrosarcomas) | inhibition of B16.F10 melanoma growth (B16.F10 murine melanomas) | weight loss ([1]; 30 mg/kg s.c. every other day) | reaction at the TNP-470 injection site ([1]; occasionally) | inhibition of CT26 adenocarcinoma growth [2]
VEGF | 0.1 to 0.5 nM | inhibited in a dose-dependent manner |  |  |  |  | 
CO[C@@H]1[C@H](OC(=O)NC(=O)CCl)CC[C@]2(CO2)[C@H]1[C@@]1(C)O[C@@H]1CC=C(C)C [TNP-470] |  |  | 73% | 71% | up to 10 % of total body weight | mild skin breakdown | 70%
